Experimental data reported in patent US20230312481A1, “SUBSTITUTED (PHTHALAZIN-1-YLMETHYL)UREAS, SUBSTITUTED N-(PHTHALAZIN-1-YLMETHYL)AMIDES, AND ANALOGUES THEREOF” (priority 2020, published 2023).

The compounds below were run on HBV rcDNA in HepDE19 cells (assay: HepDE19 assay with bDNA quantitation of HBV rcDNA). Settings: HepDE19 cells, 7 day incubation, rcDNA measured by Quantigene 2.0 bDNA assay; top concentration 25 µM; read-out: DE-19bDNA EC50.
Assay type: cell-based, hepatitis B virus
Experimental: HepDE19 Assay With bDNA Quantitation of HBV rcDNA
HepDE19 (50,000 cells/well) were plated in 96-well collagen-coated tissue-culture treated microtiter plates in DMEM/F12 medium supplemented with 10% fetal bovine serum, 1% penicillin-streptomycin and 1 µg/mL tetracycline and incubated in a humidified incubator at 37° C. and 5% CO2 overnight. Next day, the cells were switched to fresh medium without tetracycline and incubated for 4 hours at 37° C. and 5% CO2. […] The final DMSO concentration in the assay was 0.5%. The plates were incubated for 7 days in a humidified incubator at 37° C. and 5% CO2. Following a 7 day-incubation, the level of rcDNA present in the inhibitor-treated wells was measured using a Quantigene 2.0 bDNA assay kit (Affymetrix, Santa Clara, CA) with HBV specific custom probe set and manufacturers instructions. Concurrently, the effect of compounds on cell viability was assessed using replicate plates, plated at a density of 5,000 cells/well and incubated for 4 days, to determine the ATP content as a measure of cell viability using the cell-titer glo reagent (CTG; Promega Corporation, Madison, WI) as per manufacturer’s instructions.
Representative compounds of the disclosure were tested for their abilities to inhibit formation of relaxed circular DNA (rcDNA) in a HepDE19 assay, as described elsewhere herein.

Compound | EC50
CC(C)CN(C(=O)Nc1ccc(F)cc1)C(C)c1n[nH]c(=O)c2cc(F)ccc12 (single isomer, unassigned) [Compound 20, 1-(1-(6-fluoro-4-oxo-3,4-dihydrophthalazin-1-yl)ethyl)-3-(4-fluorophenyl)-1-isobutylurea] | 8 nM
CC(c1n[nH]c(=O)c2cc(F)c(F)cc12)N(C)C(=O)c1ccc2c(ccn2C)c1 (single isomer, unassigned) [Compound 107, N-(1-(6,7-difluoro-4-oxo-3,4-dihydrophthalazin-1-yl)ethyl)-N,1-dimethyl-1H-indole-5-carboxamide] | 110 nM
CC(c1n[nH]c(=O)c2cc(F)c(F)cc12)N(C)C(=O)c1ccc2c(c1)CCC2 (single isomer, unassigned) [Compound 82, N-(1-(6,7-difluoro-4-oxo-3,4-dihydrophthalazin-1-yl)ethyl)-N-methyl-2,3-dihydro-1H-indene-5-carboxamide] | 9010 nM
CC(c1n[nH]c(=O)c2cc(F)c(F)cc12)N(C)C(=O)c1cc(F)c(Br)c(F)c1 (single isomer, unassigned) [Compound 101, 4-bromo-N-(1-(6,7-difluoro-4-oxo-3,4-dihydrophthalazin-1-yl)ethyl)-3,5-difluoro-N-methylbenzamide] | 50 nM
CC(c1n[nH]c(=O)c2cc(F)c(F)cc12)N(C)C(=O)c1ccc2[nH]ncc2c1 (single isomer, unassigned) [Compound 111, N-(1-(6,7-difluoro-4-oxo-3,4-dihydrophthalazin-1-yl)ethyl)-N-methyl-1H-indazole-5-carboxamide] | 8880 nM
CC(c1n[nH]c(=O)c2cc(F)c(F)cc12)N(C)C(=O)c1ccc2c(c1)CCC2 (single isomer, unassigned) [Compound 83, N-(1-(6,7-difluoro-4-oxo-3,4-dihydrophthalazin-1-yl)ethyl)-N-methyl-2,3-dihydro-1H-indene-5-carboxamide] | 80 nM
CC(c1n[nH]c(=O)c2ccccc12)N(C)C(=O)Nc1ccc(F)c(Cl)c1 (single isomer, unassigned) [Compound 4, 3-(3-chloro-4-fluoro-phenyl)-1-methyl-1-[1-(4-oxo-3H-phthalazin-1-yl)ethyl]urea] | 200 nM
CC(C)CN(C(=O)Nc1ccc(F)cc1)C(C)c1n[nH]c(=O)c2cc(F)ccc12 (single isomer, unassigned) [Compound 21, 1-(1-(6-fluoro-4-oxo-3,4-dihydrophthalazin-1-yl)ethyl)-3-(4-fluorophenyl)-1-isobutylurea] | 2400 nM
CC(c1n[nH]c(=O)c2cc(F)c(F)cc12)N(C)C(=O)c1ccc2ncoc2c1 (single isomer, unassigned) [Compound 91, N-(1-(6,7-difluoro-4-oxo-3,4-dihydrophthalazin-1-yl)ethyl)-N-methylbenzo[d]oxazole-6-carboxamide] | 3860 nM
CC(c1n[nH]c(=O)c2cc(F)c(F)cc12)N(C)C(=O)c1ccc2ocnc2c1 (single isomer, unassigned) [Compound 89, N-(1-(6,7-difluoro-4-oxo-3,4-dihydrophthalazin-1-yl)ethyl)-N-methylbenzo[d]oxazole-5-carboxamide] | 2420 nM
CC(c1n[nH]c(=O)c2cc(F)c(F)cc12)N(C)C(=O)c1ccc2c(ccn2C)c1 (single isomer, unassigned) [Compound 106, N-(1-(6,7-difluoro-4-oxo-3,4-dihydrophthalazin-1-yl)ethyl)-N,1-dimethyl-1H-indole-5-carboxamide] | 4030 nM
CC(c1n[nH]c(=O)c2cc(F)c(F)cc12)N(C)C(=O)c1cc(F)c(Br)c(F)c1 (single isomer, unassigned) [Compound 100, 4-bromo-N-(1-(6,7-difluoro-4-oxo-3,4-dihydrophthalazin-1-yl)ethyl)-3,5-difluoro-N-methylbenzamide] | 4690 nM
CC(c1n[nH]c(=O)c2cc(F)c(F)cc12)N(C)C(=O)c1cc2sc(F)cc2[nH]1 (single isomer, unassigned) [Compound 102, N-(1-(6,7-difluoro-4-oxo-3,4-dihydrophthalazin-1-yl)ethyl)-2-fluoro-N-methyl-4H-thieno[3,2-b]pyrrole-5-carboxamide] | 3770 nM

Same assay, conditions: Hepatitis B virus, HepDE19, 168 h, HepDE19 cells, 7 day incubation, rcDNA measured by Quantigene 2.0 bDNA assay; top concentration 25 µM; read-out: DE-19bDNA EC50

Compound | EC50
CC(C)CN(C(=O)Nc1ccc(F)cc1)C(C)c1n[nH]c(=O)c2cc(Cl)ccc12 (racemic) [Compound 11, 1-(1-(6-chloro-4-oxo-3,4-dihydrophthalazin-1-yl)ethyl)-3-(4-fluorophenyl)-1-isobutylurea] | 40 nM
CC(C)CN(C(=O)Nc1ccc(F)c(Cl)c1)C(C)c1n[nH]c(=O)c2ccccc12 (racemic) [Compound 2, 3-(3-chloro-4-fluoro-phenyl)-1-isobutyl-1-[1-(4-oxo-3H-phthalazin-1-yl)ethyl]urea] | 10 nM
CC(c1n[nH]c(=O)c2cc(F)c(F)cc12)N(C)C(=O)Nc1ccc(F)c(Cl)c1 (racemic) [Compound 29, 3-(3-chloro-4-fluorophenyl)-1-(1-(6,7-difluoro-4-oxo-3,4-dihydrophthalazin-1-yl)ethyl)-1-methylurea] | 23 nM
CC(c1n[nH]c(=O)c2cc(Cl)ccc12)N(CCCO)C(=O)Nc1ccc(F)c(Cl)c1 (racemic) [Compound 13, 3-(3-chloro-4-fluorophenyl)-1-(1-(6-chloro-4-oxo-3,4-dihydrophthalazin-1-yl)ethyl)-1-(3-hydroxypropyl)urea] | 22 nM
CC(c1n[nH]c(=O)c2cc(F)c(F)cc12)N(C)C(=O)c1ccc(F)c(F)c1 (racemic) [Compound 70, N-(1-(6,7-difluoro-4-oxo-3,4-dihydrophthalazin-1-yl)ethyl)-3,4-difluoro-N-methylbenzamide] | 890 nM
CC(c1n[nH]c(=O)c2cc(F)c(F)cc12)N(C)C(=O)c1ccc(C(F)(F)F)cc1 (racemic) [Compound 66, N-(1-(6,7-difluoro-4-oxo-3,4-dihydrophthalazin-1-yl)ethyl)-N-methyl-4-(trifluoromethyl)benzamide] | 100 nM
CC(c1n[nH]c(=O)c2cc(F)c(F)cc12)N(C)C(=O)Nc1ccc(F)c(C#N)c1 (racemic) [Compound 76, 3-(3-cyano-4-fluorophenyl)-1-(1-(6,7-difluoro-4-oxo-3,4-dihydrophthalazin-1-yl)ethyl)-1-methylurea] | 40 nM
CC(c1n[nH]c(=O)c2cc(F)c(F)cc12)N(C)C(=O)c1cc(F)c(F)c(F)c1 (racemic) [Compound 67, N-(1-(6,7-difluoro-4-oxo-3,4-dihydrophthalazin-1-yl)ethyl)-3,4,5-trifluoro-N-methylbenzamide] | 740 nM
CC(c1n[nH]c(=O)c2cc(F)c(F)cc12)N(C)C(=O)c1ccc(C(F)(F)F)c(F)c1 (racemic) [Compound 62, N-(1-(6,7-difluoro-4-oxo-3,4-dihydrophthalazin-1-yl)ethyl)-3-fluoro-N-methyl-4-(trifluoromethyl)benzamide] | 100 nM
CC(C)CN(C(=O)c1cc2ccccc2[nH]1)C(C)c1n[nH]c(=O)c2cc(F)c(F)cc12 (racemic) [Compound 56, N-(1-(6,7-difluoro-4-oxo-3,4-dihydrophthalazin-l-yl)ethyl)-N-isobutyl-1H-indole-2-carboxamide] | 390 nM
CC(C)CN(C(=O)Nc1ccc(F)c(Cl)c1)C(C)c1n[nH]c(=O)c2cc(F)ccc12 (racemic) [Compound 15, 3-(3-chloro-4-fluorophenyl)-1-(1-(6-fluoro-4-oxo-3,4-dihydrophthalazin-1-yl)ethyl)-1-isobutylurea] | 10 nM
CC(c1n[nH]c(=O)c2c(F)cccc12)N(C)C(=O)Nc1ccc(F)c(F)c1 (stereo not drawn) [Compound 45, 3-(3,4-difluorophenyl)-1-(1-(5-fluoro-4-oxo-3,4-dihydrophthalazin-1-yl)ethyl)-1-methylurea] | 790 nM
CC(C)CN(C(=O)Nc1ccc(F)cc1)C(C)c1nn(C)c(=O)c2ccccc12 (racemic) [Compound 9, 3-(4-fluorophenyl)-1-isobutyl-1-(1-(3-methyl-4-oxo-3,4-dihydrophthalazin-1-yl)ethyl)urea] | 30 nM

Same assay, conditions: Hepatitis B virus, HepDE19, 168 h, read-out: DE-19bDNA EC50

Compound | EC50
C[C@H](c1n[nH]c(=O)c2cc(F)c(F)cc12)N(C)C(=O)Nc1ccc(F)cc1 [Compound 43, (R)(1-(6,7-difluoro-4-oxo-3,4-dihydrophthalazinyl)ethyl)-3-(4-fluorophenyl)methylurea] | 59 nM
CC(C)CN(C(=O)Nc1ccccc1)C(C)c1n[nH]c(=O)c2cc(F)c(F)cc12 (stereo not drawn) [Compound 40, 1-(1-(6,7-difluoro-4-oxo-3,4-dihydrophthalazin-1-yl)ethyl)-1-isobutyl-3-phenylurea] | 17 nM
C[C@@H](c1nn(C)c(=O)c2cc(F)c(F)cc12)N(C)C(=O)Nc1ccc(F)cc1 [Compound 38, (S)(1-(6,7-difluoro-3-methyl-4-oxo-3,4-dihydrophthalazinyl)ethyl)-3-(4-fluorophenyl)methylurea] | 8200 nM
C[C@H](c1n[nH]c(=O)c2cc(F)c(F)cc12)N(C)C(=O)c1cc2c([nH]1)CCCC2 [Compound 58, (R)-N-(1-(6,7-difluoro-4-oxo-3,4-dihydrophthalazin-1-yl)ethyl)-N-methyl-4,5,6,7-tetrahydro-1H-indole-2-carboxamide] | 120 nM
